The values below come from patent US20260138961A1, “MODULATORS OF MITOCHONDRIAL DNA REPLICATION” (Pretzel Therapeutics, Inc., priority 2022, published 2026).

By AC50 is commonly meant the concentration at which the activity in the assay is half-maximal.

This test deals with T1, POLγA:G848S (Homo sapiens, UniProt P54098, G848S).
T1 sequence (P54098 1-1239 G848S): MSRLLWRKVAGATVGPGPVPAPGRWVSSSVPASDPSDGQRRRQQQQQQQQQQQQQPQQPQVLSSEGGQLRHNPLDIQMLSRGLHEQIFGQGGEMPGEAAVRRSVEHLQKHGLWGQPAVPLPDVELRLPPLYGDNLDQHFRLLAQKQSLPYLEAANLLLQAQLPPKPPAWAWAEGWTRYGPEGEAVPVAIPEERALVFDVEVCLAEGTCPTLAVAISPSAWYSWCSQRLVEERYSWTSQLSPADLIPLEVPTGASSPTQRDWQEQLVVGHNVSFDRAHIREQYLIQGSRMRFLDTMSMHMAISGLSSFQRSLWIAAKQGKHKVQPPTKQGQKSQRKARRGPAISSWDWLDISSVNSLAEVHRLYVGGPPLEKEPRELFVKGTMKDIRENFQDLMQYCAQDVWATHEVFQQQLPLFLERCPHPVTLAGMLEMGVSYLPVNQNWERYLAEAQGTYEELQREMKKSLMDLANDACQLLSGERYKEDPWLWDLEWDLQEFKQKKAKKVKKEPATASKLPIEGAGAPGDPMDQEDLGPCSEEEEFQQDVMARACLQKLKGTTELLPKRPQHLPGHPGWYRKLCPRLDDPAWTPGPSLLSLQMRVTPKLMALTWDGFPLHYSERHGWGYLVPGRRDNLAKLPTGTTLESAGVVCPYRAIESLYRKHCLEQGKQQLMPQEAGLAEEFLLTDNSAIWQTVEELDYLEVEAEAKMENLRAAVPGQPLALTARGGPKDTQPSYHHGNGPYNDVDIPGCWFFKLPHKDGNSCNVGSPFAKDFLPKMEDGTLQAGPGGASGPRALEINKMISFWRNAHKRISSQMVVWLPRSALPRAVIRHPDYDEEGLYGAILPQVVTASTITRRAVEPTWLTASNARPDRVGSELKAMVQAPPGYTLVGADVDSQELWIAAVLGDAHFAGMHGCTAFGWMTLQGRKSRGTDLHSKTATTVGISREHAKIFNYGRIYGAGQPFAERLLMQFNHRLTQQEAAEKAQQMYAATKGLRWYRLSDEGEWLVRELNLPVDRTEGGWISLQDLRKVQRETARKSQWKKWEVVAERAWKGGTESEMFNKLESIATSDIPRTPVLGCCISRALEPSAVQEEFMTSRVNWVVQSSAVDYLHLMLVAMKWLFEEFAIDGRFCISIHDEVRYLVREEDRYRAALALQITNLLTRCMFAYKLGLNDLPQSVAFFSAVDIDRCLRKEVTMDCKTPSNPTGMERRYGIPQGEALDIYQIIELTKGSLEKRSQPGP
T1 sequence (Q9UHN1 1-485 partner): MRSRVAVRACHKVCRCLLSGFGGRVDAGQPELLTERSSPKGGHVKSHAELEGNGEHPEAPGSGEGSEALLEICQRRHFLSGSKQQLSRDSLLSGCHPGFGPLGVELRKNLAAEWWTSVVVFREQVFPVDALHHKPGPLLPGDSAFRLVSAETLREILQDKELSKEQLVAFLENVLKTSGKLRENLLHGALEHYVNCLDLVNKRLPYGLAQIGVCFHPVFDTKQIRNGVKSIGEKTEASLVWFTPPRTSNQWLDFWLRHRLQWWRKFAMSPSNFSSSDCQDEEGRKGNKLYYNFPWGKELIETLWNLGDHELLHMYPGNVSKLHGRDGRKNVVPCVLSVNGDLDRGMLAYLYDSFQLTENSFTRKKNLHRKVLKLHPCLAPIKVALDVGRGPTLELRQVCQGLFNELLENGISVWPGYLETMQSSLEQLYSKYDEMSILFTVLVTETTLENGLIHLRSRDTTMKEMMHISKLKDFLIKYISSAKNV
Put plainly: DNA polymerization assay, POLγA:G848S mutant. In kind it is biochemical. Conditions: stimulation of polymerase activity, primed M13mp18 ssDNA, 37° C. 2 hours; read-out: G848S AC50. How it is done:
DNA Polymerization Assay to Monitor Effects on Human Wildtype POLγ and Four Disease-Causing Mutant Variants of Human POLγ.
The ability of small molecules to stimulate the polymerase activity of POLγ was analyzed in a quantitative fluorescence SYBR Green I assay with fluorescence intensity (FI) readout.
In the presence of dNTPs, wild type human POLγ and mutant derivatives thereof were incubated with single-stranded, circular M13mp18 ssDNA hybridized to a short DNA oligonucleotide that functions as a primer for initiation of DNA synthesis. POLγ and mutant derivatives thereof will extend the primer and use the M13mp18 molecule as a template to synthesize long stretches of double-stranded DNA. SYBR Green I, which is a double-stranded DNA-binding dye, was used to quantify formation of double-stranded DNA in the reaction. When bound to double-stranded DNA, SYBR Green I fluorescence increases by up to 100-fold.
The assay was performed in the 384-well plate format. Upon addition of compounds, changes in double-stranded DNA synthesis activity can be monitored by following effects on fluorescent intensity.
The reactions also contained the accessory POLγB subunit, and the human mitochondrial single-stranded DNA binding protein (mtSSB).
The DNA template mixture used in the assay contained 0.5 nM primed M13 mp18 ssDNA, 400 nM mtSSB, 0.1 mM Tris-HCl (pH 8.0), 0.1 mM dNTP, 10 mM MgCl2, 0.1 mg/mL BSA, 1 mM TCEP solution, and 0.02% Triton X-100. The DNA template mixture for the wild type protein contained either 100 μM dNTP, 1 μM dNTP, or 0.1 μM dNTP, designated in Table 2 as 100 μM, 1 μM, and 0.1 μM, respectfully.
Microplates with compounds (0.1 μL in each well) to be tested in the assay were prepared from 10 mM compound stocks in 100% DMSO, and equal amounts of DMSO without any compound were added to positive and negative control wells.
The protein mixture was dispensed (5 μL into each well) into compound plates and incubated at 37° C. for 15 minutes. After incubation, 5 μL of the DNA template mixture was dispensed into each well. The plates were then incubated at 37° C. for 2 hours.
During incubation, a combined stop buffer and detection reagent solution was prepared. The buffer contained 25 mM EDTA (pH 8.0), 0.02% Triton X-100, and SYBR Green I [Invitrogen] diluted 10,000× (for fluorescent readout). EDTA will stop the enzymatic reaction by chelating magnesium ions.
`Cc1cc(S(=O)(=O)Nc2cccc(C(=O)N(C)C(C)CO)c2)c(C)cc1Cl` (single isomer, unassigned) [Example 14, 3-((4-chloro-2,5-dimethylphenyl)sulfonamido)-N-(1-hydroxypropan-2-yl)-N-methylbenzamide]: the AC50 came to 16 µM.

Consider `Cc1ccc(C)c(S(=O)(=O)Nc2cccc(C(=O)N3CCCCC3)c2)c1` [Example 3, 2,5-dimethyl-N-(3-(piperidine-1-carbonyl)phenyl)benzene sulfonamide], for which the AC50 amounted to 31 µM. Then `Cc1ccc(C)c(S(=O)(=O)Nc2cccc(C(=O)NCC3CC3)c2)c1` [Example 4, N-(cyclopropylmethyl)-3-((2,5-dimethylphenyl)sulfonamido)benzamide], with 33 µM; and `Cc1ccc(C)c(S(=O)(=O)Nc2cccc(C(=O)N3CCCC[C@@H]3C)c2)c1` [Example 6, (S)-2,5-dimethyl-N-(3-(2-methylpiperidine-1-carbonyl)phenyl)benzenesulfonamide], with 30 µM; and `Cc1ccc(C)c(S(=O)(=O)Nc2cccc(C(=O)N3CCOCC3C#N)c2)c1` (centres unmarked) [Example 7, N-(3-(3-cyanomorpholine-4-carbonyl)phenyl)-2,5-dimethylbenzenesulfonamide], with 13 µM. Then `Cc1ccc(C)c(S(=O)(=O)Nc2cccc(C(=O)N[C@@H](C)C3CC3)c2)c1` [Example 8, (S)-N-(1-cyclopropylethyl)-3-((2,5-dimethylphenyl)sulfonamido)benzamide], with 23 µM. For the compound `Cc1cc(S(=O)(=O)Nc2cccc(C(=O)N3CCCC[C@H]3C)c2)c(C)cc1Cl` [Example 9, (R)-4-chloro-2,5-dimethyl-N-(3-(2-methylpiperidine-1-carbonyl)phenyl)benzenesulfonamide], the AC50 is 6 µM. With `Cc1cc(S(=O)(=O)Nc2cccc(C(=O)N3CCC[C@H]3C)c2)c(C)cc1Cl` [Example 10, (R)-4-chloro-2,5-dimethyl-N-(3-(2-methylpyrrolidine-1-carbonyl)phenyl)benzenesulfonamide] the figure was 3 µM. As to `Cc1cc(S(=O)(=O)Nc2cccc(C(=O)NCc3ccccc3)c2)c(C)cc1Cl` [Example 11, N-benzyl-3-((4-chloro-2,5-dimethylphenyl)sulfonamido)benzamide], the AC50 is 34 µM. As to `Cc1cc(S(=O)(=O)Nc2cccc(C(=O)N(C)C)c2)c(C)cc1Cl` [Example 12, 3-((4-chloro-2,5-dimethylphenyl)sulfonamido)-N,N-dimethylbenzamide], the half-maximal activity concentration (AC50) turned out to be 26 µM. Then `Cc1cc(S(=O)(=O)Nc2cccc(-c3nccs3)c2)c(C)cc1Cl` [Example 16, 4-chloro-2,5-dimethyl-N-(3-(thiazol-2-yl)phenyl)benzenesulfonamide], with 2 µM; and `Cc1cc(S(=O)(=O)Nc2cccc(-c3ncco3)c2)c(C)cc1Cl` [Example 17, 4-chloro-2,5-dimethyl-N-(3-(oxazol-2-yl)phenyl)benzenesulfonamide], with 6 µM; and `Cc1cc(S(=O)(=O)Nc2cccc(-c3ccn(C)n3)c2)c(C)cc1Cl` [Example 18, 4-chloro-2,5-dimethyl-N-(3-(1-methyl-1H-pyrazol-3-yl)phenyl)benzenesulfonamide], with 8 µM. With `Cc1cc(S(=O)(=O)Nc2cccc(-c3nccn3C)c2)c(C)cc1Cl` [Example 19, 4-chloro-2,5-dimethyl-N-(3-(1-methyl-1H-imidazol-2-yl)phenyl)benzenesulfonamide] the figure was 3 µM. For `Cc1cc(S(=O)(=O)Nc2cccc(-c3ncc(C(N)=O)s3)c2)c(C)cc1Cl` [Example 92, 2-(3-((4-chloro-2,5-dimethylphenyl)sulfonamido)phenyl) thiazole-5-carboxamide], the AC50 came to 1 µM. With `CNC(=O)c1cnc(-c2cccc(NS(=O)(=O)c3cc(C)c(Cl)cc3C)c2)s1` [Example 93, 2-(3-((4-chloro-2,5-dimethylphenyl)sulfonamido)phenyl)-N-methylthiazole-5-carboxamide] the figure was 9 µM; with `Cc1cc(S(=O)(=O)Nc2cccc(-c3ncc(C(=O)N(C)C)s3)c2)c(C)cc1Cl` [Example 94, 2-(3-((4-chloro-2,5-dimethylphenyl)sulfonamido)phenyl)-N,N-dimethylthiazole-5-carboxamide], more than 100 µM; with `Cc1cc(S(=O)(=O)N[C@H]2CCCN(C(=O)[C@H]3CCCN3C)C2)c(C)cc1Cl` [Example 95, 4-chloro-2,5-dimethyl-N-((S)-1-(methyl-D-prolyl)piperidin-3-yl)benzenesulfonamide], more than 100 µM. Turning to `Cc1cc(S(=O)(=O)Nc2cccc(-c3ncc(C#N)s3)c2)c(C)cc1Cl` [Example 96, 4-chloro-N-(3-(5-cyanothiazol-2-yl)phenyl)-2,5-dimethylbenzenesulfonamide], the AC50 amounted to 4 µM. In the case of `Cc1cc(S(=O)(=O)Nc2cccc(-c3ncc(-c4nnn[nH]4)s3)c2)c(C)cc1Cl` [Example 97, N-(3-(5-(1H-tetrazol-5-yl)thiazol-2-yl)phenyl)-4-chloro-2,5-dimethylbenzenesulfonamide], the AC50 was more than 100 µM. Then `Cc1cnc(-c2ccc(C)c(NS(=O)(=O)c3cc(C)c(Cl)cc3C)c2)s1` [Example 98, 4-chloro-2,5-dimethyl-N-(2-methyl-5-(5-methylthiazol-2-yl)phenyl)benzenesulfonamide], with 9 µM. With `Cc1nc2c(NS(=O)(=O)c3cc(C)c(Cl)cc3C)cccc2s1` [Example 99, 4-chloro-2,5-dimethyl-N-(2-methylbenzo[d]thiazol-4-yl)benzenesulfonamide] the figure was more than 100 µM; with `Cc1cc(S(=O)(=O)N[C@@H]2CCCN(C(=O)[C@H]3CCCN3C)C2)c(C)cc1Cl` [Example 100, 4-chloro-2,5-dimethyl-N-((R)-1-(methyl-D-prolyl)piperidin-3-yl)benzenesulfonamide], more than 100 µM.
